According to ChEMBL document CHEMBL2074377, “Transport of glutathione prostaglandin A conjugates by the multidrug resistance protein 1” (FEBS Lett, 1997):

Key:
Type in all cases: functional, cell membranes, Membrane vesicle
[1] = target: T1, Multidrug resistance-associated protein 1 (Homo sapiens, UniProt P33527); experiment: TP_TRANSPORTER: uptake in membrane vesicles from MRP1-expressing DTY 168 yeast cells
[2] = target: MRP1 (Multidrug resistance-associated protein 1) (Homo sapiens, UniProt P33527); experiment: TP_TRANSPORTER: inhibition of EA-GS uptake (EA-GS: 0.2 uM, GA1: 10 uM, in the presence of GSH) in membrane vesicles from MRP1-expressing DTY 168 yeast cells; set-up: scale not given: the % may be the effect or the level left; details: probe EA-GS (0.2 uM), read-out: Activity
Chain of MRP1 (Multidrug resistance-associated protein 1) (P33527 whole entry): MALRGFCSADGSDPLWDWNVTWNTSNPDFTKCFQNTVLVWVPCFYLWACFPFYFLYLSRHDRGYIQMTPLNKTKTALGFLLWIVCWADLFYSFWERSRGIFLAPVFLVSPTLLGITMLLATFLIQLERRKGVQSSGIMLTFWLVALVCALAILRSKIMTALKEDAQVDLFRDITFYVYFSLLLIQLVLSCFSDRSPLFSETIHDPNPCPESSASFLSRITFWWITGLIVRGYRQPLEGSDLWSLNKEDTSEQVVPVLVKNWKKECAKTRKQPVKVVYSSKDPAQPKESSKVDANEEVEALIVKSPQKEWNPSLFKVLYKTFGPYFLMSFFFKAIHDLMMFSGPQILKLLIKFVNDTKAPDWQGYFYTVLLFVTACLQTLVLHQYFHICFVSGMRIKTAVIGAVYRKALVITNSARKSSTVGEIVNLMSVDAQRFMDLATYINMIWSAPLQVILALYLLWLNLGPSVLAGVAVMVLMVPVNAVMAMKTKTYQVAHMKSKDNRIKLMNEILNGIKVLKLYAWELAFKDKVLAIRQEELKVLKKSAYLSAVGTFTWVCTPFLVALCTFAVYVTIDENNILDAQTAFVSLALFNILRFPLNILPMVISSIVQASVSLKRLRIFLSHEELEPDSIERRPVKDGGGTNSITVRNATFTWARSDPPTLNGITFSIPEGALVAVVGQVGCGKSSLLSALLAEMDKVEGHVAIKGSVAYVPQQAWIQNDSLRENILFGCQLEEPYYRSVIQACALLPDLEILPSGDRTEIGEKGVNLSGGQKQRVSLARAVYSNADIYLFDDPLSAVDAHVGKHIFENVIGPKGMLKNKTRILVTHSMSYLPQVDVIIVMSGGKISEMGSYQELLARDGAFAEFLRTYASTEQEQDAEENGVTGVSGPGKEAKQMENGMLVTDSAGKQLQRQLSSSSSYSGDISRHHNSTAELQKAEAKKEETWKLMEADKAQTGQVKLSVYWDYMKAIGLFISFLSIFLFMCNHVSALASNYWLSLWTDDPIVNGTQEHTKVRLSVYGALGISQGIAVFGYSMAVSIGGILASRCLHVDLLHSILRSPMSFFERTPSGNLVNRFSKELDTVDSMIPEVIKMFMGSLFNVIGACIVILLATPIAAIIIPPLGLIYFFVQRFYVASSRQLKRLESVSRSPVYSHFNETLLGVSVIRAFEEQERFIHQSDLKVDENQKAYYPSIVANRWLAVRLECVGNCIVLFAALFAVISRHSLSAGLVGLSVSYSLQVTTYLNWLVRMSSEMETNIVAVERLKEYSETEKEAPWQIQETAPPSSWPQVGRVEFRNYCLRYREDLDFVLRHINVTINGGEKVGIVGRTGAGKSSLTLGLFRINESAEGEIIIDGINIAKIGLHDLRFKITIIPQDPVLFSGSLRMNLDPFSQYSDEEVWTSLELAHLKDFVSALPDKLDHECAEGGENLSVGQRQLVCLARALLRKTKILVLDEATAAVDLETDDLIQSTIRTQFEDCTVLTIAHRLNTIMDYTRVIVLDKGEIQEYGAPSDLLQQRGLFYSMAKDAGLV

[3] = target: T1, Multidrug resistance-associated protein 1; experiment: TP_TRANSPORTER: inhibition of EA-GS uptake (EA-GS: 0.2 uM,PGA2: 10 uM, in the presence of GSH) in membrane vesicles from MRP1-expressing DTY 168 yeast cells; set-up: scale not given: the % may be the effect or the level left; details: dty 168, 10 µM

T1 sequence (P33527 whole entry): as above

Structure (SMILES): CCCCC[C@H](O)/C=C/[C@H]1C(SC[C@@H](NC(=O)CC[C@@H](N)C(=O)O)C(=O)NCC(=O)O)CC(=O)[C@H]1C/C=C\CCCC(=O)O (stereo partly drawn)
- Km [1]: substrate [Km=0.8-1uM]

Structure (SMILES): CCCCC[C@H](O)/C=C/[C@H]1C=CC(=O)[C@@H]1CCCCCCC(=O)O [PROSTAGLANDIN A1]
- activity at 10 µM [2]: 15%

Structure (SMILES): CCCCC[C@H](O)/C=C/[C@H]1C=CC(=O)[C@@H]1C/C=C\CCCC(=O)O [PROSTAGLANDIN A2]
- Activity [3]: 9%
